Earlier results in patent US10980856B2, “Composition and method for treating plantar fasciitis in humans” (priority 2017, dated 2021).

How the values were obtained:
[1] = test system: monocytes
[2] = test system: human peripheral blood monocytes; conditions: after 40 hours
[3] = test system: Balb/c mice injected with histamine; conditions: applied immediately after histamine injection

SMILES	superoxide production by agonist-stimulated monocytes [1]	inhibition of lipopolysaccharide-induced production of IL-10 [2] [%]	inhibition of lipopolysaccharide-induced production of TNF-α [2] [%]	inhibition of lipopolysaccharide-induced production of interleukin-1b (IL-1b) [2] [%]	inhibition of lipopolysaccharide-induced production of prostaglandin E2 [2] [%]	histamine-induced skin edema [3]
CC1=CC[C@@H](C(C)(C)O)CC1 [a-terpineol]	suppress					
CC1=CCC(O)(C(C)C)CC1 (stereo not shown) [terpinen-4-ol]	suppress	50	50	50	30	reduced
